From article PMC7932537, “Quantitative profiling of protease specificity” (PLoS Computational Biology, 2021)

What was measured:
MMP-2 = molecular target: T1, MMP-2 (Homo sapiens, UniProt P08253); experiment: K(obs) of individual phage substrates (set of 1369); assay type: biochemical; conditions: MMP2
T1 sequence (P08253 110-660): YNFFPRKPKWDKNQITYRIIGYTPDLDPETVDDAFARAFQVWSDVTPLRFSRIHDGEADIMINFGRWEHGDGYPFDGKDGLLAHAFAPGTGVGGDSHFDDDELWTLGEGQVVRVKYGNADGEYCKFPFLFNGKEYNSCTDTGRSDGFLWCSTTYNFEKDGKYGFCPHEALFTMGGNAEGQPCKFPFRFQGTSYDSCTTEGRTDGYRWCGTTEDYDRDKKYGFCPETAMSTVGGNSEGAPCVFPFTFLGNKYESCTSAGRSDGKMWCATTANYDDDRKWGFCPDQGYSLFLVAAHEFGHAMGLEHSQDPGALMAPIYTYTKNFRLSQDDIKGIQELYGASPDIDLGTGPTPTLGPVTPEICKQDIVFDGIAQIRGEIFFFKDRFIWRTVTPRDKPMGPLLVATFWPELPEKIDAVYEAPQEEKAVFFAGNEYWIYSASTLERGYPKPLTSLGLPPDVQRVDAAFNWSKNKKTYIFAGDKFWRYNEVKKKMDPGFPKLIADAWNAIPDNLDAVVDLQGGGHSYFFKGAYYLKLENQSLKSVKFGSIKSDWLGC

MMP-9 = MMP-9 (Homo sapiens, UniProt P14780); experiment: as above; assay type: biochemical; conditions: MMP9, individual phage substrates, set of 1369 peptides
Sequence of MMP-9 (P14780 94-707): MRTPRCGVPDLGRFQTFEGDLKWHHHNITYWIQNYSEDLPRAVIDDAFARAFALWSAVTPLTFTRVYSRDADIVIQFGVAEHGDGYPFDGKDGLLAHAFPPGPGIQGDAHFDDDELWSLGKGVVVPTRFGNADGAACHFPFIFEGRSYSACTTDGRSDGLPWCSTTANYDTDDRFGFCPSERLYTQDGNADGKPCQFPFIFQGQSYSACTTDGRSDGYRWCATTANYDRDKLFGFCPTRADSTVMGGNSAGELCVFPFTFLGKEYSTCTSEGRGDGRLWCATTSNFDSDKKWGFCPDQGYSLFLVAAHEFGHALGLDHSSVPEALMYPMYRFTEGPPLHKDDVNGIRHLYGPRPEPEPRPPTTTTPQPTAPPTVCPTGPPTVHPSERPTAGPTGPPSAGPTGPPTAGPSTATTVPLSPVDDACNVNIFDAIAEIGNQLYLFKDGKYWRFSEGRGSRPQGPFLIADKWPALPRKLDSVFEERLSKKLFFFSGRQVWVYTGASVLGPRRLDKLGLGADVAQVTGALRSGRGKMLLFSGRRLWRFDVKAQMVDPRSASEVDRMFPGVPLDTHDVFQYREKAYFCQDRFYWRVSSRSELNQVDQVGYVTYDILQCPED

[1] = individual phage substrates, set of 1369 peptides, cleavage position marked by '-' in the sequence
[2] = '-' marks the cleavage position (P1-P1')
[3] = individual phage substrate from the set of 1369 peptides, cleavage position marked by the dash in the sequence
[4] = dash in sequence marks cleavage position

| Kobs (MMP-2; [1]) [M⁻¹ s⁻¹] | Kobs (MMP-9; [2]) [M⁻¹ s⁻¹] | Kobs (MMP-2; [3]) [M⁻¹ s⁻¹] | Kobs (MMP-9; [4]) [M⁻¹ s⁻¹] | Substance |
| --- | --- | --- | --- | --- |
| 7386.83 | 799.117 |  |  | NKTAW-LTASG |
| 0 | 0 |  |  | GALDW-MSTAS |
|  |  | 8321.48 | 6688.74 | SGPAA-LQSTA |
| 0 | 0 |  |  | GGSGR-LNMRL |
| 12792.1 | 484.315 |  |  | QHLAA-LTASG |
|  |  | 3165.09 | 12792.1 | RRPLR-ITASG |
| 12792.1 | 7015.91 |  |  | SGPAG-MHSTA |
|  |  | 8941.32 | 171.876 | VMHQN-LTASG |
|  |  | 1327.88 | 0 | GGSGF-LVAKA |
| 5461.43 | 2476.66 |  |  | VHVHA-LTASG |
|  |  | 8941.32 | 8321.48 | SGPMA-LKSTA |
|  |  | 726.013 | 0 | YTMLH-LTASG |
| 12792.1 | 12792.1 |  |  | SGPLA-VRTTA |
| 3079.62 | 3079.62 |  |  | SKVLF-LTASG |
| 0 | 0 |  |  | TLTHH-LTASG |
| 6396.07 | 1925.41 |  |  | GTVRH-LSTAS |
|  |  | 12792.1 | 7815.03 | SGGRN-LTATA |
|  |  | 7815.03 | 8321.48 | SRPRM-LTASG |
| 6131.32 | 2837.92 |  |  | GCLMA-LTTAS |
|  |  | 1071.29 | 0 | GGSGA-LHRPG |
| 1610.61 | 690.17 |  |  | RGMQN-LTASG |
|  |  | 5667.28 | 8321.48 | DAPYF-LTASG |
| 484.315 | 1071.29 |  |  | GRAQN-LLTAS |
| 0 | 0 |  |  | SGYMH-IKVTA |
| 7386.83 | 1513.13 |  |  | WVANM-ITASG |
| 2476.66 | 10866.7 |  |  | SGPLT-LNSTA |

| Kobs (MMP-2; [1]) [M⁻¹ s⁻¹] | Kobs (MMP-9; [2]) [M⁻¹ s⁻¹] | Kobs (MMP-2; [3]) [M⁻¹ s⁻¹] | Kobs (MMP-9; [4]) [M⁻¹ s⁻¹] | Substance |
| --- | --- | --- | --- | --- |
| 6131.32 | 12792.1 |  |  | APVYA-LTASG |
| 12792.1 | 12792.1 |  |  | GLPQA-LLTAS |
| 836.403 | 0 |  |  | GRHQS-LRTAS |
| 12792.1 | 12792.1 |  |  | MVPHM-LTASG |
| 5090.5 | 12792.1 |  |  | GVPLN-VKTAS |
| 551.253 | 1327.88 |  |  | GRVWH-LQTAS |
| 1561.44 | 7815.03 |  |  | SGPLS-QSTTA |
| 10866.7 | 0 |  |  | GTIAH-LHTAS |
|  |  | 142.481 | 0 | GSGNS-LKRRT |
|  |  | 0 | 0 | SGALD-LKRTA |
| 113.394 | 113.394 |  |  | SGLQN-LMLTA |
|  |  | 12792.1 | 5889.62 | TAVRS-LTASG |
| 0 | 0 |  |  | GMYLN-LKTAS |
|  |  | 1418.96 | 1513.13 | FTVHM-LTASG |
| 0 | 0 |  |  | GSGMR-LVLRT |
|  |  | 10866.7 | 10866.7 | RGPVF-LTASG |
| 0 | 0 |  |  | SGIQT-MKVTA |
|  |  | 836.403 | 56.119 | SGVGA-LNKTA |
| 12792.1 | 12792.1 |  |  | MKPVN-LTASG |
| 12792.1 | 6688.74 |  |  | SGPAP-LVLTA |
|  |  | 1154.21 | 726.013 | RHMLG-LTASG |
| 12792.1 | 12792.1 |  |  | VFALN-LTASG |
| 1925.41 | 1283.43 |  |  | DVAFH-LTASG |
| 6688.74 | 4470.66 |  |  | TMAHP-LTASG |
|  |  | 5461.43 | 8321.48 | VKVWG-LTASG |
| 12792.1 | 4922.1 |  |  | GLAVG-LRTAS |

| Kobs (MMP-2; [1]) [M⁻¹ s⁻¹] | Kobs (MMP-9; [2]) [M⁻¹ s⁻¹] | Kobs (MMP-2; [3]) [M⁻¹ s⁻¹] | Kobs (MMP-9; [4]) [M⁻¹ s⁻¹] | Substance |
| --- | --- | --- | --- | --- |
|  |  | 142.481 | 0 | GSGWD-LKRST |
|  |  | 0 | 27.918 | SGTWR-LMLTA |
|  |  | 12792.1 | 8941.32 | SGPRS-LSQTA |
|  |  | 0 | 0 | GGSGS-LSVWK |
|  |  | 0 | 0 | GGSGR-LTLKW |
| 0 | 201.585 |  |  | GTIDL-LTTAS |
|  |  | 7386.83 | 84.609 | GEIAS-LSTAS |
| 5090.5 | 12792.1 |  |  | LQPLT-ITASG |
| 12792.1 | 12792.1 |  |  | SGPLG-IFYTA |
| 12792.1 | 3850.82 |  |  | SGLGE-LRGTA |
| 0 | 386.839 |  |  | SGPHL-LIRTA |
|  |  | 142.481 | 261.974 | GGSGR-LVMTY |
| 12792.1 | 1112.44 |  |  | GRVAH-LRTAS |
|  |  | 56.119 | 0 | GKFAT-LVTAS |
| 0 | 0 |  |  | GSGAK-LIVRT |
| 10866.7 | 4205.91 |  |  | SVARN-LTASG |
| 1870.4 | 0 |  |  | GTIAY-LNTAS |
|  |  | 3253.29 | 551.253 | PYAEN-LTASG |
| 292.668 | 2218.08 |  |  | GTVWA-LTTAS |
|  |  | 12792.1 | 12792.1 | KSPRM-LTASG |
|  |  | 3165.09 | 1981.53 | GRAWG-LITAS |
| 7815.03 | 0 |  |  | NRIGN-FTASG |
|  |  | 7815.03 | 2476.66 | VKAQH-LTASG |
| 12792.1 | 4470.66 |  |  | STVRN-LTASG |
| 8321.48 | 4470.66 |  |  | SRVRN-LTASG |
| 113.394 | 0 |  |  | GGSGA-LQRLP |

| Kobs (MMP-2; [1]) [M⁻¹ s⁻¹] | Kobs (MMP-9; [2]) [M⁻¹ s⁻¹] | Kobs (MMP-2; [3]) [M⁻¹ s⁻¹] | Kobs (MMP-9; [4]) [M⁻¹ s⁻¹] | Substance |
| --- | --- | --- | --- | --- |
|  |  | 12792.1 | 12792.1 | GQPRN-LSTAS |
| 12792.1 | 113.394 |  |  | IMMAY-LTASG |
|  |  | 142.481 | 517.582 | SGAGR-LRATA |
|  |  | 0 | 113.394 | SGVKF-LFNTA |
| 3964.21 | 6688.74 |  |  | RDVLW-LTASG |
|  |  | 1816.46 | 0 | GGSGP-LRARL |
|  |  | 3438.54 | 84.609 | TRMAL-LTASG |
|  |  | 2157.02 | 1283.43 | GQPNF-LTASG |
| 27.918 | 0 |  |  | SGVNL-LLMTA |
| 0 | 762.325 |  |  | SGAYH-LQQTA |
| 12792.1 | 12792.1 |  |  | HYPSS-LTASG |
|  |  | 355.093 | 355.093 | GGSGQ-LRREY |
| 3079.62 | 0 |  |  | RTYSH-LTASG |
| 3344.37 | 2916.17 |  |  | AIYRS-MTASG |
| 292.668 | 3079.62 |  |  | SGAWN-MRVTA |
|  |  | 113.394 | 0 | SGVNR-ISLTA |
|  |  | 484.315 | 451.441 | WNSLN-LTASG |
| 7386.83 | 3438.54 |  |  | ERPGW-LTASG |
| 12792.1 | 12792.1 |  |  | SSPLY-LTASG |
| 5889.62 | 27.918 |  |  | ATASF-LTASG |
|  |  | 619.843 | 0 | GGSGQ-LLATK |
|  |  | 12792.1 | 12792.1 | MVVRH-LTASG |
| 12792.1 | 12792.1 |  |  | GVPSW-LSTAS |
| 12792.1 | 323.705 |  |  | TALGY-LTASG |
| 551.253 | 355.093 |  |  | WSVQL-LTASG |
